Measured values from PMC6980506, “Comparative pharmacokinetics and pharmacodynamics of the advanced Retinol-Binding Protein 4 antagonist in dog and cynomolgus monkey” (PLoS ONE, 2020).
Several values for one entry are separate records, joined by “and”; a condition that tells them apart may be missing. Equal entries are not always repeated. Where two headings read alike, the source gives them in different places.

Assay: Single dose pharmacokinetic study in beagle dog
Assay type: in vivo
Conditions: for Plasma level, Individual animals / concentration at 0.083 h / concentration at 0.25 h / concentration at 0.5 h / concentration at 1 h / concentration at 2 h / concentration at 4 h / concentration at 6 h / concentration at 8 h: male beagle dog; for concentration at 0.083 h / concentration at 0.25 h / concentration at 0.5 h / concentration at 1 h / concentration at 2 h / concentration at 4 h / concentration at 6 h / concentration at 8 h: male, beagle, dog, plasma, iv
Procedure: Pharmacokinetic studies were conducted in male beagle dogs and male cynomolgus monkeys at SRI International, Menlo Park, CA. General procedures for animal care and housing were in accordance with the National Research Council (NRC) Guide for the Care and Use of Laboratory Animals (1996) and the Animal Welfare Standards incorporated in 9 CFR Part 3, 1991 and complied with guidelines set forth by the ARVO Animal Statement for the Use of Animals in Ophthalmic and Vision Research. During the course of the PK experiments, cynomolgus monkeys were individually housed in stainless steel primary enclosures in an AAALAC-accredited facility. Animals were fed a commercial monkey chow, and supplemental food was provided (fresh fruits, vegetables, seeds, and nuts). Reverse osmosis-purified drinking water was available at all times. Cynomolgus monkeys were maintained on a 12:12 hour light:dark cycle at the 64–84°F temperature and 30–70% humidity. Monkeys had access to enrichment opportunities (grooming devices, foraging devices, activity panels and mirrors) and were provided auditory stimuli and human interaction enrichment throughout the study. Blood samples were collected by venipuncture of a peripheral vein. Animals were acclimated to the squeeze back mechanism in their home cage by repeated, short periods of restraint during general husbandry procedures for at least 2 weeks prior to dosing. Animal were not removed from their cages for collection, and no anesthesia/analgesic agents were used for blood collection. […] For PK experiments, beagle dogs were individually housed in enclosed run (≥ 4 ft x 6 ft). Dogs were exposed to their daily ration of food, Harlan Teklad 2025C Certified Global 25% Protein Dog Diet. Water was provided from the public water supply (municipal tap water) ad libitum. Dogs were maintained on a 12:12 hour light:dark cycle at the 72–73°F temperature and 40–71% humidity. Every effort was made to minimize, if not eliminate, pain and suffering in all animals in this study. No restraining devices were used in blood collecting procedures. Dogs were gentle hand-held to restrain by trained technicians with the dogs foreleg extended for sample collection of blood from cephalic vein. Animals were awake during blood sample collection with no anesthesia/analgesic agents used, and positive reinforcement by the technician was provided following collection. […] All dogs were released back to the colony after the study was completed. Male beagle dogs and male cynomolgus monkey received a single i.v. dose of a test compound at 0.5 mg kg^−1 (dog) and 1 mg kg^−1 (monkey) or a single p.o. dose of a test compound of at 2 mg kg^−1 (dog) and 5 mg kg^−1 (monkey). The number of animals that was used in PK experiments is 3 per study group. Intravenous administration vehicle was 3% DMA/45% PEG300/12% ethanol/40% sterile water; p.o. vehicle was 2% Tween 80 in 0.9% saline. […] Blood samples were processed to plasma. Following protein extraction with acetonitrile, compound concentrations in plasma were measured by LC-MS/MS. The plasma drug level data were analyzed using WinNonlin software package; Model 201 (for i.v. bolus administration);was used for the analysis of i.v. data, and Model 200 (for extravascular administration) was used for the analysis of the p.o. data. Aliquots of pre-dose plasma samples, as well as aliquots of plasma PK samples, were used for the analysis of the plasmabiomarker, RBP4.

%F, bioavailability (Dog, 2.0 mg kg^−1 p.o. vs 0.5 mg kg^−1 i.v.): 84.2 ± 10.4%
plasma concentrations of compound (dog plasma at 24, 36, and 48 hours after 2 mg kg^−1 oral dosing): 70 to 500 ng/mL
Plasma level, Individual animals (iv 0.5 mg/kg, 0.083 hr, 0.5 mg/kg): 2750 ng/mL and 2650 ng/mL
Plasma level, Individual animals (iv 0.5 mg/kg, 0.25 hr, 0.5 mg/kg): 2090 ng/mL and 2140 ng/mL
Plasma level, Individual animals (iv 0.5 mg/kg, 0.5 hr, 0.5 mg/kg): 1820 ng/mL and 1800 ng/mL
Plasma level, Individual animals (iv 0.5 mg/kg, 1 hr, 0.5 mg/kg): 1270 ng/mL and 1380 ng/mL
Plasma level, Individual animals (iv 0.5 mg/kg, 2 hr, 0.5 mg/kg): 1060 ng/mL and 1000 ng/mL
Plasma level, Individual animals (iv 0.5 mg/kg, 4 hr, 0.5 mg/kg): 492 ng/mL and 458 ng/mL
Plasma level, Individual animals (iv 0.5 mg/kg, 6 hr, 0.5 mg/kg): 284 ng/mL and 281 ng/mL
Plasma level, Individual animals (iv 0.5 mg/kg, 8 hr, 0.5 mg/kg): 203 ng/mL and 207 ng/mL
Plasma level, Individual animals (iv 0.5 mg/kg, 12 hr, 0.5 mg/kg): 69.2 ng/mL and 141 ng/mL and 111 ng/mL
Plasma level, Individual animals (iv 0.5 mg/kg, 24 hr, 0.5 mg/kg): 186 ng/mL and 171 ng/mL
Plasma level, Individual animals (iv 0.5 mg/kg, 36 hr, 0.5 mg/kg): 47.1 ng/mL and 42.5 ng/mL
Plasma level, Individual animals (iv 0.5 mg/kg, 48 hr, 0.5 mg/kg): 102 ng/mL and 93.0 ng/mL
Plasma level, Individual animals (po 2 mg/kg, 0.25 hr, 2 mg/kg): 9280 ng/mL and 4890 ng/mL
Plasma level, Individual animals (po 2 mg/kg, 0.5 hr, 2 mg/kg): 7730 ng/mL and 6080 ng/mL
Plasma level, Individual animals (po 2 mg/kg, 1 hr, 2 mg/kg): 6080 ng/mL and 5100 ng/mL
Plasma level, Individual animals (po 2 mg/kg, 2 hr, 2 mg/kg): 4460 ng/mL and 4300 ng/mL
Plasma level, Individual animals (po 2 mg/kg, 4 hr, 2 mg/kg): 2560 ng/mL and 2080 ng/mL
Plasma level, Individual animals (po 2 mg/kg, 8 hr, 2 mg/kg): 971 ng/mL and 885 ng/mL
Plasma level, Individual animals (po 2 mg/kg, 10 hr, 2 mg/kg): 581 ng/mL and 690 ng/mL
Plasma level, Individual animals (po 2 mg/kg, 12 hr, 2 mg/kg): 391 ng/mL and 753 ng/mL
Plasma level, Individual animals (po 2 mg/kg, 24 hr, 2 mg/kg): 542 ng/mL and 277 ng/mL
Plasma level, Individual animals (po 2 mg/kg, 36 hr, 2 mg/kg): 95.3 ng/mL and 105 ng/mL
Plasma level, Individual animals (po 2 mg/kg, 48 hr, 2 mg/kg): 152 ng/mL and 160 ng/mL and 67.0 ng/mL
concentration at 0.083 h (0.5 mg/kg, iv 0.5 mg/kg, 0.083 hr, read-out: Plasma level, Individual animals): 2660 ng/mL
concentration at 0.083 h (0.5 mg/kg, iv 0.5 mg/kg, 0.083 hr, read-out: Plasma level, Mean): 2690 ng/mL
concentration at 0.25 h (0.5 mg/kg, iv 0.5 mg/kg, 0.25 hr, read-out: Plasma level, Individual animals): 2000 ng/mL
concentration at 0.25 h (0.5 mg/kg, iv 0.5 mg/kg, 0.25 hr, read-out: Plasma level, Mean): 2080 ng/mL
concentration at 0.5 h (0.5 mg/kg, iv 0.5 mg/kg, 0.5 hr, read-out: Plasma level, Individual animals): 1690 ng/mL
concentration at 0.5 h (0.5 mg/kg, iv 0.5 mg/kg, 0.5 hr, read-out: Plasma level, Mean): 1770 ng/mL
concentration at 1 h (0.5 mg/kg, iv 0.5 mg/kg, 1 hr, read-out: Plasma level, Individual animals): 1500 ng/mL
concentration at 1 h (0.5 mg/kg, iv 0.5 mg/kg, 1 hr, read-out: Plasma level, Mean): 1380 ng/mL
concentration at 2 h (0.5 mg/kg, iv 0.5 mg/kg, 2 hr, read-out: Plasma level, Individual animals): 1020 ng/mL
concentration at 2 h (0.5 mg/kg, iv 0.5 mg/kg, 2 hr, read-out: Plasma level, Mean): 1030 ng/mL
concentration at 4 h (0.5 mg/kg, iv 0.5 mg/kg, 4 hr, read-out: Plasma level, Individual animals): 442 ng/mL
concentration at 4 h (0.5 mg/kg, iv 0.5 mg/kg, 4 hr, read-out: Plasma level, Mean): 464 ng/mL
concentration at 6 h (0.5 mg/kg, iv 0.5 mg/kg, 6 hr, read-out: Plasma level, Individual animals): 308 ng/mL
concentration at 6 h (0.5 mg/kg, iv 0.5 mg/kg, 6 hr, read-out: Plasma level, Mean): 291 ng/mL
concentration at 8 h (0.5 mg/kg, iv 0.5 mg/kg, 8 hr, read-out: Plasma level, Individual animals): 217 ng/mL
concentration at 8 h (0.5 mg/kg, iv 0.5 mg/kg, 8 hr, read-out: Plasma level, Mean): 209 ng/mL
Compound: Cc1cc(C(=O)O)nc(N2C[C@H]3C[C@@H](c4ccccc4C(F)(F)F)C[C@H]3C2)n1 [BPN-14136]
